Data reported in ChEMBL document CHEMBL1909046, “DrugMatrix in vitro pharmacology data”.

Tests used:
Progesterone receptor = target: T1, Progesterone receptor (Bos taurus, UniProt Q690N0); assay: DRUGMATRIX: Progesterone radioligand binding (ligand: [3H] R-5020); assay type: tissue-based, Uterus; conditions: Not Active = under 50% inhibition at 10 µM
T1 sequence (Q690N0 whole entry): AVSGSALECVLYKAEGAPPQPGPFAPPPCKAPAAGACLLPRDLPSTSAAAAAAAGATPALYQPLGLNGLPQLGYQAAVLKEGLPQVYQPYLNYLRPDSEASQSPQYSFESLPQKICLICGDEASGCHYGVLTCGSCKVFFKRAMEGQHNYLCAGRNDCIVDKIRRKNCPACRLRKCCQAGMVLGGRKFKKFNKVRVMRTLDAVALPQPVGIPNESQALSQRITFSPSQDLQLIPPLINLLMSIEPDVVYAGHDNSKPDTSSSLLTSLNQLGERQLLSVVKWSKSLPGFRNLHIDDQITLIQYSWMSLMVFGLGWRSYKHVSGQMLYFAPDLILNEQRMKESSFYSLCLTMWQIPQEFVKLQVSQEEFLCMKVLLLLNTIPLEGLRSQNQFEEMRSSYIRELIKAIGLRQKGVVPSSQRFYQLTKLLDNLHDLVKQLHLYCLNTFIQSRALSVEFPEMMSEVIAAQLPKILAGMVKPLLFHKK

Carbonic anhydrase 2 = Carbonic anhydrase 2 (Homo sapiens, UniProt P00918); assay: DRUGMATRIX: Carbonic Anhydrase II enzyme inhibition (substrate: 4-Nitrophenyl acetate (4-NPA)); assay type: tissue-based; conditions: erythrocyte; Not Active = under 50% inhibition at 10 µM
Melanocortin receptor 3 = Melanocortin receptor 3 (Homo sapiens, UniProt P41968); assay type: cell membranes, HEK293, Membrane; conditions: hek293; also: in other assays of this panel Not Active means under 50% inhibition at 10 µM
Sequence of Melanocortin receptor 3 (P41968 whole entry): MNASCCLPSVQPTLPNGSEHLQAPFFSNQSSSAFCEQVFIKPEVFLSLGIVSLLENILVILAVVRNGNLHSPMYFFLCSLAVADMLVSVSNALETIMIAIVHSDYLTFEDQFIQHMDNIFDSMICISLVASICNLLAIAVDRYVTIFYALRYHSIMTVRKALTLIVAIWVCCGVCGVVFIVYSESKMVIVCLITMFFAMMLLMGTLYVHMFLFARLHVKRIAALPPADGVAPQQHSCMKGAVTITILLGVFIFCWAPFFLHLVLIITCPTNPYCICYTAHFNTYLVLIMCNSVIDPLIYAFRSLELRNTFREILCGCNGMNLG

[1] = DRUGMATRIX: Potassium Channel [KATP] radioligand binding (ligand: [3H] Glyburide); assay type: cell membranes, Membrane; conditions: hit-t15; Not Active = under 50% inhibition at 10 µM
[2] = DRUGMATRIX: Platelet-Derived Growth Factor (PDGF) radioligand binding (ligand: [125I] PDGF); assay type: cell-based; conditions: nih3t3; Not Active = under 50% inhibition at 10 µM
Melanocortin receptor 5 = Melanocortin receptor 5 (Homo sapiens, UniProt P33032); assay type: cell membranes, HEK293, Membrane; also: in other assays of this panel Not Active means under 50% inhibition at 10 µM
Sequence of Melanocortin receptor 5 (P33032 whole entry): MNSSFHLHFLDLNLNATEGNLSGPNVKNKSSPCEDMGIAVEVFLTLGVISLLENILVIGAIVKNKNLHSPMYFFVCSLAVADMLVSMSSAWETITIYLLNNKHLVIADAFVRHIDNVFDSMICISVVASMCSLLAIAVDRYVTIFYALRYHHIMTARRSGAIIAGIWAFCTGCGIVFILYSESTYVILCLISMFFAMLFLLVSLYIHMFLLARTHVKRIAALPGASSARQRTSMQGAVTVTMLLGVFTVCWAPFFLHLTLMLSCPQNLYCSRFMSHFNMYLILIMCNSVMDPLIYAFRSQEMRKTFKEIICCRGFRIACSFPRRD

Cytochrome P450 3A4 = Cytochrome P450 3A4 (Homo sapiens, UniProt P08684); conditions: bti-tn-5b1-4; also: in other assays of this panel Not Active means under 50% inhibition at 10 µM
Sequence of Cytochrome P450 3A4 (P08684 whole entry): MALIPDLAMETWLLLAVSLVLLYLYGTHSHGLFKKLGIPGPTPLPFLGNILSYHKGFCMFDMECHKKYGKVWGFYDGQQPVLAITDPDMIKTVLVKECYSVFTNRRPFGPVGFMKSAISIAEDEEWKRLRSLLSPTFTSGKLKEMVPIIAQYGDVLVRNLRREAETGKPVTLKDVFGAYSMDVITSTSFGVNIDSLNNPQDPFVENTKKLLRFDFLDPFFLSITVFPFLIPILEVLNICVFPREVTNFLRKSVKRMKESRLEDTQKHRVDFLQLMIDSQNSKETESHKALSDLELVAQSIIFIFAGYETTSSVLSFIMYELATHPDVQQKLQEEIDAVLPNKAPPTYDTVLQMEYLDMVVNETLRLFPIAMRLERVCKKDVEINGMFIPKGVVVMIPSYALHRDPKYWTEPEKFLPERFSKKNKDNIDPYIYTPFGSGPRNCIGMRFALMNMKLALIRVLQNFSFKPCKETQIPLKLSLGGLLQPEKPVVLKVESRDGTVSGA

CCN(CC)CC(=O)Nc1c(C)cccc1C [LIDOCAINE]
IC50 (Progesterone receptor): Not Active | IC50 (Carbonic anhydrase 2): Not Active | IC50 (Melanocortin receptor 3): Not Active | IC50 [1]: Not Active | Ki [1]: Not Active | IC50 [2]: Not Active | Ki [2]: Not Active | IC50 (Melanocortin receptor 5; hek293): Not Active

O=C1Nc2ccc(Cl)cc2C(c2ccccc2Cl)=NC1O (configuration not stated) [LORAZEPAM]
IC50 (Progesterone receptor): Not Active | IC50 (Carbonic anhydrase 2): Not Active | IC50 (Melanocortin receptor 3): Not Active | IC50 [1]: Not Active | Ki [1]: Not Active | IC50 (Cytochrome P450 3A4): Not Active | Ki (Cytochrome P450 3A4): Not Active | IC50 [2]: Not Active | Ki [2]: Not Active | IC50 (Melanocortin receptor 5; hek293): Not Active

CO[C@@H]1[C@@H](OC)[C@H](C)[C@@](O)(CC(=O)O)O[C@H]1[C@H](C)[C@H]1O[C@@]2(CC[C@@](C)([C@H]3CC[C@@](C)([C@@H]4O[C@@H]([C@H]5O[C@](C)(O)[C@H](C)C[C@@H]5C)C[C@@H]4O[C@@H]4C[C@H](OC)[C@@H](OC)[C@H](C)O4)O3)O2)C[C@H](O)[C@H]1C [MADURAMICIN ACID]
IC50 (Progesterone receptor): Not Active | IC50 (Carbonic anhydrase 2): Not Active | IC50 (Melanocortin receptor 3): Not Active | IC50 [1]: Not Active | Ki [1]: Not Active | IC50 (Cytochrome P450 3A4): Not Active | Ki (Cytochrome P450 3A4): Not Active | IC50 [2]: Not Active | Ki [2]: Not Active | IC50 (Melanocortin receptor 5; hek293): Not Active

COc1c2occc2cc2ccc(=O)oc12 [METHOXSALEN]
IC50 (Progesterone receptor): Not Active | IC50 (Carbonic anhydrase 2): Not Active | IC50 (Melanocortin receptor 3): Not Active | IC50 [1]: Not Active | Ki [1]: Not Active | IC50 (Cytochrome P450 3A4): Not Active | Ki (Cytochrome P450 3A4): Not Active | IC50 [2]: Not Active | Ki [2]: Not Active | IC50 (Melanocortin receptor 5; hek293): Not Active

C[C@H]1C[C@@H]2[C@H]([C@@H](O)C[C@@]3(C)[C@H]2CC[C@]3(O)C(=O)CO)[C@@]2(C)C=CC(=O)C=C12 [METHYLPREDNISOLONE]
IC50 (Progesterone receptor): Not Active | IC50 (Carbonic anhydrase 2): Not Active | IC50 (Melanocortin receptor 3): Not Active | IC50 [1]: Not Active | Ki [1]: Not Active | IC50 (Cytochrome P450 3A4): Not Active | Ki (Cytochrome P450 3A4): Not Active | IC50 [2]: Not Active | Ki [2]: Not Active | IC50 (Melanocortin receptor 5; hek293): Not Active

Cc1cccc(C)c1OCC(C)N (configuration not stated) [MEXILETINE]
IC50 (Progesterone receptor): Not Active | IC50 (Carbonic anhydrase 2): Not Active | IC50 (Melanocortin receptor 3): Not Active | IC50 [1]: Not Active | Ki [1]: Not Active | IC50 (Cytochrome P450 3A4): Not Active | Ki (Cytochrome P450 3A4): Not Active | IC50 [2]: Not Active | Ki [2]: Not Active | IC50 (Melanocortin receptor 5; hek293): Not Active

Nc1cc(N2CCCCC2)nc(N)[n+]1[O-] [MINOXIDIL]
IC50 (Progesterone receptor): Not Active | IC50 (Carbonic anhydrase 2): Not Active | IC50 (Melanocortin receptor 3): Not Active | IC50 [1]: Not Active | Ki [1]: Not Active | IC50 (Cytochrome P450 3A4): Not Active | Ki (Cytochrome P450 3A4): Not Active | IC50 [2]: Not Active | Ki [2]: Not Active | IC50 (Melanocortin receptor 5; hek293): Not Active

CO[C@H]1/C=C/O[C@@]2(C)Oc3c(C)c(O)c4c(O)c(c(/C=N/N5CCN(C6CCCC6)CC5)c(O)c4c3C2=O)NC(=O)/C(C)=C\C=C\[C@H](C)[C@H](O)[C@@H](C)[C@@H](O)[C@@H](C)[C@H](OC(C)=O)[C@@H]1C [RIFAPENTINE]
IC50 (Progesterone receptor): Not Active | IC50 (Carbonic anhydrase 2): Not Active | IC50 (Melanocortin receptor 3): Not Active | IC50 [1]: Not Active | Ki [1]: Not Active | IC50 [2]: Not Active | Ki [2]: Not Active | IC50 (Melanocortin receptor 5; hek293): Not Active

CCCCOc1cc(CC2CNC(=O)N2)ccc1OC (configuration not stated) [RO-201724]
IC50 (Progesterone receptor): Not Active | IC50 (Carbonic anhydrase 2): Not Active | IC50 (Melanocortin receptor 3): Not Active | IC50 [1]: Not Active | Ki [1]: Not Active | IC50 (Cytochrome P450 3A4): Not Active | Ki (Cytochrome P450 3A4): Not Active | IC50 [2]: Not Active | Ki [2]: Not Active | IC50 (Melanocortin receptor 5; hek293): Not Active

CN[C@H]1CC[C@@H](c2ccc(Cl)c(Cl)c2)c2ccccc21 [SERTRALINE]
IC50 (Progesterone receptor): Not Active | IC50 (Carbonic anhydrase 2): Not Active | IC50 (Melanocortin receptor 3): Not Active | IC50 (Cytochrome P450 3A4): Not Active | Ki (Cytochrome P450 3A4): Not Active | IC50 (Melanocortin receptor 5; read-out: IC50): 4.6 µM | Ki (Melanocortin receptor 5; read-out: Ki): 4.31 µM

O.O.O.O.O.O.[Cl-].[Cl-].[Sr+2] [STRONTIUM CHLORIDE HEXAHYDRATE]
IC50 (Progesterone receptor): Not Active | IC50 (Carbonic anhydrase 2): Not Active | IC50 (Melanocortin receptor 3): Not Active | IC50 (Cytochrome P450 3A4): Not Active | Ki (Cytochrome P450 3A4): Not Active | IC50 [2]: Not Active | Ki [2]: Not Active | IC50 (Melanocortin receptor 5; hek293): Not Active

COc1cc2nc(N3CCN(C(=O)C4CCCO4)CC3)nc(N)c2cc1OC (configuration not stated) [TERAZOSIN]
IC50 (Carbonic anhydrase 2): Not Active | IC50 (Melanocortin receptor 3): Not Active | IC50 [2]: Not Active | Ki [2]: Not Active | IC50 (Melanocortin receptor 5; hek293): Not Active

CN(C/C=C/C#CC(C)(C)C)Cc1cccc2ccccc12 [TERBINAFINE]
IC50 (Progesterone receptor): Not Active | IC50 (Carbonic anhydrase 2): Not Active | IC50 (Melanocortin receptor 3): Not Active | IC50 [1]: Not Active | Ki [1]: Not Active | IC50 [2]: Not Active | Ki [2]: Not Active | IC50 (Melanocortin receptor 5; hek293): Not Active

CCCCNc1ccc(C(=O)OCCN(C)C)cc1 [TETRACAINE]
IC50 (Progesterone receptor): Not Active | IC50 (Carbonic anhydrase 2): Not Active | IC50 (Melanocortin receptor 3): Not Active | IC50 [1]: Not Active | Ki [1]: Not Active | IC50 [2]: Not Active | Ki [2]: Not Active | IC50 (Melanocortin receptor 5; hek293): Not Active
